Results published in patent US20240415791A1, “Therapeutic methods and compositions for treating cancer using devimistat and a fatty acid oxidation inhibitor, a tyrosine kinase inhibitor, a glutaminase inhibitor, and/or a glycolysis inhibitor” (Cornerstone Pharmaceuticals, Inc., priority 2021, published 2024).
Entries after “also recorded” stand apart in the source; their conditions may differ.

Legend:
AsPC1 cells [1] = test: Devimistat-induced cell death (ATP after recovery) in AsPC1 cells; type: cell-based, human; details: AsPC1, nutrient-free CBS2, treatment followed by recovery in serum-free RPMI
Method: Cells were plated at 80% confluency in complete RPMI in black, clear bottom 96-well plates or 35-mm dishes for ATP, protein and glycogen analysis, or glass coverslips for fluorescence visualization. […] Prior to drug treatment, cells were incubated in a nutrient-free carbonate buffered salt solution (CBS2) for 3 hours. Drug treatments were then carried out in CBS2 with addition of nutrient sources and/or chemical agents as described in the Examples and Figures.
(§1) LOGIC: High throughput, plate reader assays for cell death essentially always ultimately depend on metabolic activity of cells to identify viability, directly or indirectly. Thus, strong inhibition of metabolic activity by anti-metabolism agents like those described herein can confound cell death analysis by such assays. […] The inventors thus used a recovery-based assay wherein cells are treated with anti-metabolic agents under conditions where mitochondrial metabolism is (or becomes) limiting on viability. After experimental treatment, drug and media are removed and cells are allowed to recover in serum-free RPMI. RPMI provides high levels of glucose in support of glycolytic ATP generation (independently of mitochondrial function), allowing viable cells to recover ATP levels that are ultimately measured in the plate assay to score cell viability.
Survival is assessed by conventional luminescence measurement of ATP levels after this recovery.
TECHNICAL DETAILS: Immediately after drug treatments, acute ATP levels of cells in black, clear bottom 96-well plates were measured using the CellTiter-Glo® Luminescent Cell Viability Assay (catalog #G775B) following Promega (Madison, WI) protocols. […] After this recovery period ATP levels were measured using the CellTiter-Glo® Luminescent Cell Viability Assay as described above.
Survival is assessed by conventional luminescence measurement of ATP levels after this recovery. See the Methods section above for a detailed description of this assay and its validation.

AsPC1 xenograft = AsPC1 xenograft tumor growth, crizotinib and devimistat; type: in vivo, mice; details: crizotinib oral gavage, devimistat IP, MWF
Method: Female, 6-week-old, CD1-nu/nu mice were inoculated with 2.5 million PANC-1 cell in 100 μL of HBSS or 5 million AsPC-1 cells in HBSS. Treatment commenced when tumors reached 100 mm^3 and lasted for the times indicated in the Examples and Figures. Mice were treated three times per week (MWF) with vehicle or drugs as indicated in the Examples and Figures. Tumors were measured once per week. […] Use of Matrigel for tumor inoculation was avoided in TGI experiments with this class of agents.
D. Assessment of CRZ and/or devimistat effects on AsPC1 xenograft tumor growth in vivo. Tumors were inoculated subcutaneously on the flank and drug combinations indicated in FIG. 8C were administered intraperitoneally (devimistat) or by oral gavage (CRZ) three days per week (MWF). Tumor size was estimated by caliper assessment of tumor radius and calculation of volume (see Methods).

AsPC1 cells [2] = test: Acute ATP synthesis rescue by exogenous carbon sources in AsPC1 cells treated with devimistat and GPi; type: cell-based, human; details: 60 μM devimistat
AsPC1 cells [3] = test: CO2 release from 14C-oleic acid in AsPC1 cells; type: cell-based, human; details: AsPC1, CBS2, 50 μM GPi, 40 μM oleic acid
[4] = test system: H460, PC3 and SW620 cells; test: Devimistat cell killing with thioridazine in other cell lines; type: cell-based, human; details: 10 μM devimistat, 21 hours treatment, 22 hours recovery
PANC1 cells [5] = test: Devimistat-induced cell death (ATP after recovery) in PANC1 cells; type: cell-based, human; details: PANC1, nutrient-free CBS2, treatment followed by recovery in serum-free RPMI
Method: Cells were plated at 80% confluency in complete RPMI in black, clear bottom 96-well plates or 35-mm dishes for ATP, protein and glycogen analysis, or glass coverslips for fluorescence visualization. To create low nutritional conditions, cells were seeded in complete media, after 24 hours cells were transferred to serum free RPMI for 18-24 hours. Prior to drug treatment, cells were incubated in a nutrient-free carbonate buffered salt solution (CBS2) for 3 hours. Drug treatments were then carried out in CBS2 with addition of nutrient sources and/or chemical agents as described in the Examples and Figures.
as §1, with “cell viability. Under these conditions, cells that are committed to execution of cell death by the experimental treatment score as dead and cells that have not committed to cell death recover ATP levels and score as viable.” for “cell viability.”
Specifically, after exposure to the treatments indicated, cells are allowed to recover ([…]) in RPMI without serum. Survival is assessed by conventional luminescence measurement of ATP levels after this recovery.
TECHNICAL DETAILS: Immediately after drug treatments, acute ATP levels of cells in black, clear bottom 96-well plates were measured using the CellTiter-Glo® Luminescent Cell Viability Assay (catalog #G775B) following Promega (Madison, WI) protocols. To assess cell viability, after drug treatments, drug/agent-containing medium was replaced with serum-free RPMI and cells were incubated for an additional 17-24 hours to allow recovery of viable cells, without additional cell division. After this recovery period ATP levels were measured using the CellTiter-Glo® Luminescent Cell Viability Assay as described above.
A. Exogenous glucose protects from devimistat-induced cell death. Four different cell lines were exposed for 15 hours (PANC1, AsPC1, H460) or 8 hours (PC3) to the indicated range of devimistat doses in the absence of exogenous nutrients (in carbonate buffered balanced salts solution, CBS2) after 3 hours of preincubation in CBS2 (for cell adaptation and to equilibrate soluble nutrient pools). Cells were exposed to the treatments indicated, followed by recovery (24 hours) in RPMI without serum (providing nutrient support for viable cell recovery, without serum factors for cell division). Survival is assessed by conventional luminescence measurement of ATP levels after this recovery. […] The relatively large quantitative differences in devimistat sensitivity between cell lines under exogenous nutrient deprivation are characteristic of each line (see examples below), with small experiment-to-experiment variation. […]

AsPC1 cells [6] = test: Glycogen content in AsPC1 cells; type: cell-based, human; details: AsPC1, CBS2, 3 hours
Method: (§2) Glycogen was quantified using the Glycogen Assay Kit II (colorimetric) from AbCam (ab169558) according to manufacturer's instructions. Briefly, approximately 2×10^6 cells were washed with ice-cold PBS and collected via scraping in 300 μL ice-cold ddH2O. Cells were immediately sonicated on ice for 5× […] pulses with a probe sonicator (Misonix Inc, model XL2000), then heated to 80° C. for 10 min. Samples were stored O/N at −20° C., then thawed, centrifuged at 12,000×g for 10 min and the supernatants collected for glycogen hydrolysis and quantification according to manufacturer's instructions.
C. […] Cells were treated in CBS2 for 3 hours with 30 μM devimistat or mock treated (FIG. 2C, left), or treated for 3 hours with the indicated devimistat doses (FIG. 2C, right).
(§3) D. Effects of anti-metabolism agents on glycogen consumption in PANC1 and AsPC1 cells. […] Glycogen content was measured in cell lysates (see Methods, above) and the results are presented in the left and middle graphs in FIG. 3D (note the different vertical scales for PANC1 and AsPC1 plots).

PANC1 cells [7] = test: Glycogen content in PANC1 cells; type: cell-based, human; details: PANC1, CBS2, 3 hours
Method: as §2
C. Comparison of endogenous glycogen stores and their devimistat-induced depletion in PANC1 and AsPC1 cells. Cells were treated in CBS2 for 3 hours with 30 μM devimistat or mock treated (FIG. 2C, left), or treated for 3 hours with the indicated devimistat doses (FIG. 2C, right). Glycogen quantitation is described in Methods, above. ** indicates p<0.01. **** indicates p<0.0001.
as §3

[8] = AsPC1, 50 μM GPi, 50 μM oleic acid

SMILES: C[C@@H](Oc1cc(-c2cnn(C3CCNCC3)c2)cnc1N)c1c(Cl)ccc(F)c1Cl [Crizotinib, (R)-3-[1-(2,6-Dichloro-3-fluorophenyl)ethoxy]-5-[1-(piperidin-4-yl)-1H-pyrazol-4-yl]pyridin-2-amine]
- sensitization to devimistat-induced cell death, agent combined with devimistat (AsPC1 cells [1]): robustly sensitize
- sensitization to devimistat tumor cell killing in vivo (AsPC1 xenograft): sensitizes to devimistat tumor cell killing in vitro and in vivo
- inhibition of oleic acid (OA)-driven acute ATP synthesis / OA rescue (AsPC1 cells [2]; [8]): robust inhibition
- OA rescue blockade (AsPC1 cells [2]; acute ATP synthesis, 50 μM GPi, 50 μM oleic acid): Yes

SMILES: CSc1ccc2c(c1)N(CCC1CCCCN1C)c1ccccc1S2 (stereo not drawn) [TZ, 2-methylmercapto-10-[2-(N-methyl-2-piperidyl)ethyl] phenothiazine]
- sensitization to devimistat-induced cell death, agent combined with devimistat (AsPC1 cells [1]): Synergy observed; also recorded: enhances devimistat effects
- oleic acid beta-oxidation (CO2 release from oleate) (AsPC1 cells [3]): block oleic acid beta-oxidation
- enhancement of devimistat cell killing [4]: enhances devimistat cell killing
- sensitization to devimistat-induced cell death, agent combined with devimistat (PANC1 cells [5]): Synergy observed
- inhibition of oleic acid (OA)-driven acute ATP synthesis / OA rescue (AsPC1 cells [2]; [8]): strongly inhibited
- glycogen consumption (AsPC1 cells [6]): accelerates glycogen consumption

SMILES: CCOC(=O)[C@@]1(CCCCCCOc2ccc(Cl)cc2)CO1 [ETX]
- sensitization to devimistat-induced cell death, agent combined with devimistat (AsPC1 cells [1]): enhances devimistat effects
- oleic acid beta-oxidation (CO2 release from oleate) (AsPC1 cells [3]): block oleic acid beta-oxidation
- inhibition of oleic acid (OA)-driven acute ATP synthesis / OA rescue (AsPC1 cells [2]; [8]): strongly inhibited

SMILES: CN(C)C(=O)[C@H](O)[C@H](Cc1ccccc1)NC(=O)c1cc2cc(Cl)ccc2[nH]1 [CP-91149, 5-chloro-N-[(1S,2R)-3-(dimethylamino)-2-hydroxy-3-oxo-1-(phenylmethyl)propyl]-1H-indole-2-carboxamide]
- sensitization to devimistat-induced cell death, agent combined with devimistat (AsPC1 cells [1]): Synergy observed
- glycogen consumption (PANC1 cells [7]): reduces glycogen consumption
- sensitization to devimistat-induced cell death, agent combined with devimistat (PANC1 cells [5]): interacts more weakly with devimistat
- glycogen consumption (AsPC1 cells [6]): reduces glycogen consumption

SMILES: CCN(CCO)CCCC(C)Nc1ccnc2cc(Cl)ccc12 (stereo not drawn) [HCQ]
- sensitization to devimistat-induced cell death, agent combined with devimistat (AsPC1 cells [1]): Synergy observed
- glycogen consumption (PANC1 cells [7]): significantly accelerates glycogen consumption
- sensitization to devimistat-induced cell death, agent combined with devimistat (PANC1 cells [5]): Synergy observed
- glycogen consumption (AsPC1 cells [6]): significantly accelerates glycogen consumption

SMILES: O=C(Cc1cccc(OC(F)(F)F)c1)Nc1ccc(CCCCc2nnc(NC(=O)Cc3ccccn3)s2)nn1 [CB-839, 2-(pyridin-2-yl)-N-(5-(4-(6-(2-(3-(trifluoromethoxy)phenyl)acetamido)pyridazin-3-yl)butyl)-1,3,4-thiadiazol-2-yl)acetamide]
- sensitization to devimistat-induced cell death, agent combined with devimistat (AsPC1 cells [1]): modest effects on devimistat sensitivity
- sensitization to devimistat-induced cell death, agent combined with devimistat (PANC1 cells [5]): modest effects on devimistat sensitivity
- blockade of glutamine rescue from devimistat inhibition of ATP synthesis (AsPC1 cells [2]; AsPC1, 50 μM GPi, 2 mM glutamine, CB-839 0.2 μM, hexachlorophene 3 μM, 4.5 hours): blockade
